In assay [1] the test system is rats subjected to FPI (TBI model). Put plainly: Evans Blue extravasation, BBB permeability in hippocampus (rat FPI). The format is in vivo. The following applies: 15 minutes after TBI; slices five hours post-injury. As for the experimental part:
(§1) Craniotomy and lateral fluid percussion injury (FPI) were performed using a previously validated and published procedure. Farias S, et al. J. Neurotraum, 26, 1977-1986, 2009; Frey L. C. et al. J. Neurosci. Methods 177, 267-272, 2009. Throughout the specification animals subjected to this protocol are referred to as having a TBI since this treatment protocol is a TBI model. Briefly, rats were anesthetized with 3-5% isoflurane, isosol, VEDCO Inc., St. Joseph, Mo., via nose cone and mounted in a stereotaxic head frame. A 3 millimeter (mm) craniotomy was created and centered at 3 mm caudal to bregma and 3.5 mm left of the sagittal suture, keeping the exposed dura intact. […] Moistened food pellets were provided after injury, and all animals were monitored daily for well-being and weight changes. […]
One hour prior to FPI, rats received a 5 ml intraperitoneal (IP) injection of Evans Blue (EB) solution, 2% w/v in saline. […] Images from each slice were stitched together using Fiji/ImageJ (NIH), and EB-positive cells in the hippocampal cell layers were quantified using the cell counter tool.
The inventors utilized Evans Blue (EB) fluorescence to assess BBB permeability in the rat FPI model. […] Fluorescence microscopy was used to image brain slices harvested five hours post-injury, taking advantage of EB's intrinsic fluorescent properties, excitation at 620 nm and emission at 680 nm. […]

Assay [2] has the same test system. Put plainly: Hippocampal long-term potentiation (LTP) in slices four days after TBI (rat FPI). The format is in vivo. The procedure: as §1, with “intact. One steel support screw was embedded in the skull on the contralateral side. A Luer-Lock hub with an inside diameter of 3.5 mm was centered over the craniotomy and bonded to the skull with cyanoacrylate adhesive and capped. Dental acrylic, Snap, Parka, Inc., Edgewood, N.J., was poured around the huh and screw. After the acrylic hardened antibiotic ointment was applied around the cap and the animals were returned to their cages.” for “intact.”
Four days after FPI or at the times indicated in the figures for CHI model animals were sacrificed and the brains were rapidly removed and immersed in ice-cold, sucrose containing cutting buffer (87 mM NaCl, 2.5 mM KCl, 7 mM MgCl2, 0.5 mM CaCl2, 1.25 mM NaH2PO4, 25 mM D-glucose, 35 mM sucrose, and 25 mM NaHCO3) for 40-60 seconds to cool the interior of the brain. […] A bipolar tungsten stimulating electrode was placed in the Schaffer collateral (SC) pathway to evoke synaptic field excitatory postsynaptic potentials (fEPSPs) recorded in the stratum radiatum using a nearby glass micropipette filled with aCSF. […]

Consider one molecule from patent publication US10080748B2, “Use of flap inhibitors to reduce neuroinflammation mediated injury in the central nervous system” (Bioscience Pharma Partners, LLC, priority 2014, dated 2018).

For the molecule `CC(C)c1ccc2c(c1)c(SC(C)(C)C)c(CC(C)(C)C(=O)O)n2Cc1ccc(Cl)cc1` [MK-886, 1-[(4-Chlorophenyl)methyl]-3-[(1,1-dimethylethyl)thio]-α,α-dimethyl-5-(1-methylethyl)-1H-Indole-2-propanoic acid], the “number of EB-positive cells in the CA1 region” value in assay [1] is reported as 69.25+/−36.82. The “LTP, % of control fEPSP slope at 58-60 min” value is 256.13+/−8.527% in assay [2] (30 minutes post-injury), 242.75+/−76.94% in assay [2] (30 minutes pre-injury) and 145.46+/−18.30 in assay [2] (60 minutes post-injury).
